“And” between values parts separate entries of the source, which are not always exact repeats. Equal values may be shown once. Marks after values point to notes of the source that are not given here.
System: A549 human lung carcinoma cells
Assay: In vitro potency assay for Photofrin®: A549 cells, 4 h drug absorption, wash, 10 min irradiation at 400-650 nm, 24 h, XTT viability, 4PL EC50
Type: cell-based
Parameters: key to EC50-XTT / EC50 STD / EC50 Test: EC50 as Photofrin concentration in μg/mL (4PL inflection point)
Settings: for EC50 Test / Black plate EC50 / EC50 STD: in µg/mL; for Black plate EC50: black plate with black lid; for Clear Plate EC50: clear 96-well plate; for Potency of Test Sample / Potency of Test Sample, Mean / Experimental Potency: ratio EC50(standard)/EC50(test); for Potency of Test Sample / Potency of Test Sample, Mean: expected 0.5; for EC50 STD: standard sample (70 μg/mL high test drug concentration)
Protocol: Cell passaging of A549 cells is performed using fixed seeding densities to reduce assay variation resulting from cell culture conditions. […] Working in very low light conditions, Photofrin® is reconstituted in normal saline to 2.5 mg/mL and diluted further in culture medium at twice the desired final assay concentration, typically 140 μg/mL. A series of two-fold dilutions were then prepared from the 140 μg/mL solution and the diluted drug was added to the cells at 1:1 (v/v) according to the diagram shown in FIG. 11.
[…] The plate is then removed from the incubator, the drug is aspirated, the wells are washed with Dulbecco's phosphate buffered saline (DPBS) and fresh, pre-warmed medium is added to the wells. […] […] The wells covered with foil strips are important controls for the activity of Photofrin® in the absence of irradiation and the effect of light on the cells in the absence of drug.
The optical absorbance of the wells in column 1 (high drug concentration, no cells) is evaluated for absorption at 450 nm to ensure that the drug is not interfering with the XTT assay. The percent viability of each of the wells in columns 2-9 and 11 is calculated relative to the mean value of column 10 (cell control, no drug, no light). For each dose response obtained, a four parameter logistic (4PL) nonlinear regression analysis is performed of the percent viability versus the log-Photofrin® concentration. The point of inflection of the regression curve (C value) is defined as the EC50 and used in the calculation of relative potency. Curve fitting and calculation of the EC50 is performed with Softmax v5.4.2 (Molecular Devices, Inc.) or Prism v.5.04 (GraphPad, Software Inc.) software. The mean percent viability of columns 9 and 11 is also calculated.
• 1. Materials and Reagents • 1.1. A549 Human Lung Carcinoma (ATCC—Cat. No.: CCL-185) • 1.2. 25 cm^2 Flasks (Corning—Cat. No.: 431463, or equivalent) • 1.3. 75 cm^2 Flasks (Corning—Cat. No.: 431464, or equivalent) • 1.4. 50 mL tubes (Fisher Scientific—Cat. No. 17-512F, or equivalent) • 1.5. Hemacytometer • 1.6. RPMI-1640 (+) phenol red (Lonza—Cat. No.: 12-167F, or equivalent) • 1.7. HI-FBS (Gibco—Life Technologies—Cat No.: 10082-147, or equivalent) • 1.8. 200 mM L-Glutamine (Lonza—Cat. No.: 17-605E, or equivalent) • 1.9. 0.25% Trypsin-EDTA (Gibco—Cat. No.: 25200-056, or equivalent) • 2. Instruments • 2.1. Forma Scientific centrifuge with swinging bucket rotor (Model 5682, or equivalent) • 2.2. Water bath set at 37° C. • 2.3. […] Prepared Reagents • 3.1. RPMI-1640 Complete Media • 3.1.1. 500 mL bottle of RPMI-1640 basal media containing phenol red • 3.1.2. Add 50 mL HI-FBS • 3.1.3. Add 5.5 mL of 200 mM L-Glutamine • 4. Procedure • 4.1. Remove one vial of A549 lung carcinoma cells from liquid nitrogen storage and after ensuring that the vial is tightly closed, rapidly thaw vial by holding all but the top of the vial submerged in a 37° C. water bath until the vial contents begins to thaw but while ice still remains. • 4.2. Liberally spray the vial with 70% ethanol, wipe with tissue, and place into a laminar flow hood. • 4.3. Transfer the contents of the vial to a 50 mL conical tube containing 9 mL RPMI-1640 complete medium containing phenol red (Step 3.1) (hereafter referred to as complete medium in this method). • 4.4. Centrifuge the tube in a swing bucket rotor set at 1200 RPM (220 RCF) for five minutes at room temperature. • 4.5. Discard supernatant and gently flick the tube to resuspend the cells in the residual volume left in the tube. • 4.6. Add 5 mL complete medium, transfer the cell solution to a 25 cm^2 flask, and then place the flask into a 37° C. incubator with 5% CO2. • 4.7. Monitor the flask daily and when the cells reach approximately 80% confluence, remove the media, and wash the cells by adding 2 mL DPBS to the flask. Ensure that all cells are rinsed and discard the DPBS. • 4.8. Add 1 mL 0.25% trypsin-EDTA to prewash the cells, tip flask to coat all cells, and discard the trypsin. • 4.9. […]

[1] = seeding density 0.8 × 10^4 cells/well
[2] = seeding density 1.2 × 10^4 cells/well
[3] = seeding density 1.9 × 10^4 cells/well

How did the “EC50 Test” value (Test sample of theoretical potency 0.5) turn out when porfimer sodium [Photofrin®] was run?
Its value is 21.3 and 21.7.

What about the “EC50 Test” value (Test sample of theoretical potency 2) of the same substance?
The value was 5.16.

What about the “EC50 Test” value (Test sample of theoretical potency 4 (dissolved in one-fourth the nominal volume), confidence interval wide due to poor curve fitting) of the same substance?
Its value is 2.36*.

What about the Test Sample EC50 (Test sample, 35 μg/mL high test concentration regressed as if 70 μg/mL, Plate 1 (placement Standard, Test; left to right dilution; controls in columns 9-11)) of the same substance?
Its Test Sample EC50 is 21.2 µg/mL.

And the Test Sample EC50 (Test sample, 35 μg/mL high test concentration regressed as if 70 μg/mL, Plate 2 (placement Test, Standard; left to right dilution; controls in columns 9-11))?
Its Test Sample EC50 is 22.2 µg/mL.

What about the Test Sample EC50 (Test sample, 35 μg/mL high test concentration regressed as if 70 μg/mL, Plate 3 (right to left dilution; controls in columns 9-11)) of the same substance?
The Test Sample EC50 was 21.5 µg/mL.

And the Test Sample EC50 (Test sample, 35 μg/mL high test concentration regressed as if 70 μg/mL, Plate 4 (placement Standard, Test; left to right dilution; controls in columns 9-11))?
Its Test Sample EC50 is 21.5 µg/mL.

What about the Test Sample EC50 (Test sample, 35 μg/mL high test concentration regressed as if 70 μg/mL, Plate 5 (left to right dilution; controls in columns 2-4)) of the same substance?
Its Test Sample EC50 is 20.1 µg/mL.

And the Test Sample EC50, Mean (Test sample, 35 μg/mL high test concentration regressed as if 70 μg/mL, mean across Plates 1-5 of positional analysis)?
Its Test Sample EC50, Mean is 21.3 µg/mL.

And the “Black plate EC50” value (experiment PIN-004, nine point dose response 250-0.977 μg/m)?
The value was 8.08.

What about the “Black plate EC50” value (experiment PIN-008, six point dose response 30.0-1.09 μg/mL) of the same substance?
Its value is 10.1 and 9.48 and 9.59.

And the Black plate EC50, Mean (black plate, mean of PIN-004 and PIN-008 values)?
Its Black plate EC50, Mean is 9.31 µg/mL.

And the “Clear Plate EC50” value (experiment PIN-004, nine point dose response 250-0.977 μg/m, in µg/mL (unit assumed))?
Its value is 1.87.

What about the “Clear Plate EC50” value (experiment PIN-008, six point dose response 30.0-1.09 μg/mL, in µg/mL (unit assumed)) of the same substance?
The value was 2.49 and 2.46 and 2.33.

And the Clear Plate EC50, Mean (clear plate, mean of PIN-004 and PIN-008 values)?
Its Clear Plate EC50, Mean is 2.29 µg/mL.

And the EC50-XTT (experiment PIN-009, XTT endpoint, in µg/mL (unit assumed))?
The EC50-XTT was 9.48 and 9.42.

And the EC50-XTT, Mean (experiment PIN-009, XTT endpoint, mean)?
Its EC50-XTT, Mean is 9.45 µg/mL.

And the “Potency of Test Sample” value (A549 cells at passage P10)?
The value was 0.556.

And the “Potency of Test Sample” value (A549 cells at passage P17)?
Its value is 0.526.

What about the “Potency of Test Sample” value (Inter-operator Assay, AB-1) of the same substance?
The value was 0.465.

What about the “Potency of Test Sample” value (Inter-operator Assay, AB-2) of the same substance?
Its value is 0.564.

What about the “Potency of Test Sample, Mean” value (Inter-operator Assay, mean of operator AB plates) of the same substance?
The value was 0.515.

And the Potency of Test Sample, Mean (Inter-operator Assay, mean of operator KP plates)?
The Potency of Test Sample, Mean was 0.487.

And the “Potency of Test Sample” value (Inter-operator Assay, operator KP, both plates KP-1)?
The value was 0.470 and 0.503.

And the “Potency of Test Sample” value (absorption time 3.5 hours)?
The value was 0.533.

What about the “Potency of Test Sample” value (absorption time 4.0 hours) of the same substance?
The value was 0.507.

What about the “Potency of Test Sample” value (absorption time 4.5 hours) of the same substance?
The value was 0.573.

And the “Potency of Test Sample” value (irradiation time 8 minutes)?
The value was 0.490.

And the “Potency of Test Sample” value (irradiation time 9 minutes)?
The value was 0.476.

What about the “Potency of Test Sample” value (irradiation time 10 minutes) of the same substance?
Its value is 0.487.

And the “Potency of Test Sample” value (irradiation time 11 minutes)?
The value was 0.555.

What about the “Potency of Test Sample” value (irradiation time 12 minutes) of the same substance?
Its value is 0.514.

What about the “Potency of Test Sample” value (operator AB Pilot Assay-1) of the same substance?
The value was 0.411.

And the “Potency of Test Sample” value (operator AB Pilot Assay-2)?
Its value is 0.537.

And the “Potency of Test Sample” value (post-irradiation incubation time 22 hours)?
The value was 0.549.

And the “Potency of Test Sample” value (post-irradiation incubation time 24 hours)?
Its value is 0.54.

And the “Potency of Test Sample” value (post-irradiation incubation time 26 hours)?
The value was 0.575.

What about the “Potency of Test Sample” value (post-irradiation temperature 35° C.) of the same substance?
Its value is 0.448.

What about the “Potency of Test Sample” value (post-irradiation temperature 37° C. (nominal, two experiments)) of the same substance?
Its value is 0.543 and 0.495.

And the “Potency of Test Sample” value (post-irradiation temperature 39° C.)?
Its value is 0.516.

What about the “Potency of Test Sample” value [1] of the same substance?
Its value is 0.521.

And the “Potency of Test Sample” value [2]?
The value was 0.391.

What about the “Potency of Test Sample” value [3] of the same substance?
Its value is 0.526.

And the “Experimental Potency” value (theoretical potency 0.5)?
The value was 0.526 and 0.516.

And the “Experimental Potency” value (theoretical potency 2)?
Its value is 2.05.

And the “Experimental Potency” value (theoretical potency 4, wide confidence interval on EC50)?
The value was 4.36*.

And the “Mean Potency” value (ratio of the EC50(standard)/EC50(test), positional analysis, Plates 1-5, Test sample is Standard diluted two-fold)?
Its value is 0.516.

And the “EC50 STD” value (assayed with Test sample of theoretical potency 0.25)?
Its value is 11.6.

What about the “EC50 STD” value (assayed with Test sample of theoretical potency 2) of the same substance?
Its value is 10.6.

What about the “EC50 STD” value (assayed with Test sample of theoretical potency 4) of the same substance?
The value was 10.3.

And the “EC50 STD” value [1]?
Its value is 11.0.

And the “EC50 STD” value [2]?
The value was 10.9.

And the “EC50 STD” value [3]?
Its value is 11.2.

And the “killing of the cells” value (treatment of cells followed by irradiation at 400-650 nm)?
The value was “dose-dependent killing of the cells”.
